Measurements from article PMC2858655, “Structural and Functional Characterization of Human Peripheral Nervous System Myelin Protein P2” (PLoS ONE, 2010).

Experiments:
[1] = target: T1, human myelin P2 protein (untagged) (Homo sapiens, UniProt P02689); test: X-ray crystallography, […] Å; type: binding; details: fatty acid carried over from E. coli, identity modelled from electron density; inside barrel cavity; pH 8.5
T1 construct: gene PMP2

[2] = target: T2, His-tagged P2 protein (His-P2) (Homo sapiens, UniProt P02689); test: intrinsic Trp fluorescence quenching; type: binding; details: 9.4 µM protein, 10 µM cholesterol, 1% ethanol, HEPES, 150 mM NaCl, pH 7.5, 120 min, room temperature, excitation 280 nm
T2 construct: gene PMP2; full length, N-terminal His6 tag with TEV site kept (pTH27), E. coli Rosetta(DE3)

In the case of CCCCCCCCCCCCCCCC(=O)O [palmitate], the “X-ray crystallography, 1.85 Å” value [1] is reported as “a palmitate molecule, well-defined in the electron density (Figure 2B,4A), was modeled into the lipid-binding cavity”.
For CC(C)CCC[C@@H](C)[C@H]1CC[C@H]2[C@@H]3CC=C4C[C@@H](O)CC[C@]4(C)[C@H]3CC[C@]12C [cholesterol], the “decrease of fluorescence intensity” value [2] was ~ 25%.
